In ChEMBL document CHEMBL1201862, “PubChem BioAssay data set” (2004):
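Exposure lasted 48 hours, with cells grown in 96-well plates and compounds tested at five concentrations. GI50 = concentration required for 50% inhibition of growth.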 Calls of active or inactive are those of the source. Rule as the data show it: active = GI50 up to about 1.1 µM and inactive = higher.

Experiments:
Assay in all cases: NCI tumour cell line growth inhibition, 48 h
MDA-MB-231 = test system: MDA-MB-231
T47D = test system: T47D
MCF7 = test system: MCF7
NCI-H23 = test system: NCI-H23
HT-29 = test system: HT-29
PC-3 = test system: PC-3
M14 = test system: M14
TK-10 = test system: TK-10
OVCAR-4 = test system: OVCAR-4
SN12C = test system: SN12C
EKVX = test system: EKVX
HOP-62 = test system: HOP-62
CAKI-1 = test system: CAKI-1
LOX IMVI = test system: LOX IMVI
HOP-92 = test system: HOP-92
UACC-257 = test system: UACC-257
SR = test system: SR
UACC-62 = test system: UACC-62
NCI-H460 = test system: NCI-H460
U-251 = test system: U-251

Row | SMILES | GI50 (MDA-MB-231) | GI50 (T47D) | GI50 (MCF7) | GI50 (NCI-H23) | GI50 (HT-29) | GI50 (PC-3) | GI50 (M14) | GI50 (TK-10) | GI50 (OVCAR-4) | GI50 (SN12C) | GI50 (EKVX) | GI50 (HOP-62) | GI50 (CAKI-1) | GI50 (LOX IMVI) | GI50 (HOP-92) | GI50 (UACC-257) | GI50 (SR) | GI50 (UACC-62) | GI50 (NCI-H460) | GI50 (U-251)
1 | CC(C)Cc1cnc(CC(C)C)c(=O)[nH]1 | > 100 µM (inactive) | > 100 µM (inactive) | > 100 µM (inactive) | > 100 µM (inactive) | > 100 µM (inactive) | > 100 µM (inactive) | > 100 µM (inactive) | > 100 µM (inactive) | > 100 µM (inactive) | > 100 µM (inactive) | > 100 µM (inactive) | > 100 µM (inactive) | > 100 µM (inactive) | > 100 µM (inactive) | > 100 µM (inactive) | > 100 µM (inactive) | > 100 µM (inactive) | > 100 µM (inactive) | > 100 µM (inactive) | > 100 µM (inactive)
2 | CN(C)CCNc1ccc2ncnc3c2c1C(=O)c1ccccc1-3 | 0.337 µM (active) | 0.619 µM (active) | 0.406 µM (active) | 0.655 µM (active) | 0.463 µM (active) | 0.519 µM (active) | 0.314 µM (active) | 0.175 µM (active) | 0.627 µM (active) | 0.332 µM (active) | 0.343 µM (active) | 0.242 µM (active) | 0.259 µM (active) | 0.24 µM (active) | 1.12 µM (active) | 2.09 µM (inactive) | 0.0824 µM (active) | 0.757 µM (active) | 0.443 µM (active) | 0.49 µM (active)
3 | Cc1ccc(NCCN(C)C)c2c(=O)c3cc(O)ccc3sc12 | 1.87 µM (inactive) | 7.91 µM (inactive) | 0.177 µM (active) | 2.22 µM (inactive) | 2.49 µM (inactive) | 1.22 µM (inactive) | 4.88 µM (inactive) | 17.6 µM (inactive) | 7.21 µM (inactive) | 1.94 µM (inactive) | 12.4 µM (inactive) | 0.586 µM (active) | 1.31 µM (inactive) | 1.05 µM (active) | 2.38 µM (inactive) | 8 µM (inactive) | 0.241 µM (active) | 2.95 µM (inactive) | 0.0516 µM (active) | 1.63 µM (inactive)
4 | CCCCCC(/C=C/C1CCC(=O)C1)OCOCCOC (stereo not given) | 69.8 µM (inactive) | 52.1 µM (inactive) | 33.5 µM (inactive) | 55.2 µM (inactive) | 23.4 µM (inactive) | 42.1 µM (inactive) | 34 µM (inactive) | 37.2 µM (inactive) | 47.9 µM (inactive) | 57.5 µM (inactive) | 54.1 µM (inactive) | > 100 µM (inactive) | 31.5 µM (inactive) | 24.3 µM (inactive) | 24.2 µM (inactive) | 26.9 µM (inactive) | > 46.3 µM (inactive) | 36.6 µM (inactive) | 67.9 µM (inactive) | 38.1 µM (inactive)
5 | O=CN1CCN(C(=O)c2ccco2)C1=S | 17.3 µM (inactive) | 4.07 µM (inactive) | 2.7 µM (inactive) | 15.6 µM (inactive) | 11.3 µM (inactive) | 7.29 µM (inactive) | 8.85 µM (inactive) | 14.3 µM (inactive) | 19.7 µM (inactive) | 4.01 µM (inactive) | 17.6 µM (inactive) | 13.2 µM (inactive) | 5.38 µM (inactive) | 3.72 µM (inactive) | 4.12 µM (inactive) | 12.1 µM (inactive) | 2.11 µM (inactive) | 8.04 µM (inactive) | 12.4 µM (inactive) | 13.9 µM (inactive)
6 | O=c1/c(=C/c2ccc([N+](=O)[O-])o2)sc2n1[C@@H](c1ccc3c(c1)OCO3)C=C(c1cc(F)c(Cl)cc1Cl)N=2 | 23 µM (inactive) | 17.3 µM (inactive) | 10 µM (inactive) | 20.6 µM (inactive) | 17.1 µM (inactive) | 22 µM (inactive) | 13.9 µM (inactive) | 23.3 µM (inactive) | 15.7 µM (inactive) | 18 µM (inactive) | 16.6 µM (inactive) | 22.5 µM (inactive) | 13.7 µM (inactive) | 17.2 µM (inactive) | 12.6 µM (inactive) | 17.2 µM (inactive) | 3.33 µM (inactive) | 15.9 µM (inactive) | 17.8 µM (inactive) | 19.9 µM (inactive)
7 | NC(Cc1ccc2nc3c4ccccc4c(=O)cc-3oc2c1)C(=O)O (stereo not given) | > 100 µM (inactive) | > 100 µM (inactive) | 18.4 µM (inactive) | 17.6 µM (inactive) | 71.3 µM (inactive) | > 100 µM (inactive) | 25.3 µM (inactive) | > 100 µM (inactive) | > 100 µM (inactive) | > 100 µM (inactive) | > 100 µM (inactive) | > 100 µM (inactive) | > 100 µM (inactive) | 45.8 µM (inactive) | > 100 µM (inactive) | 72.1 µM (inactive) | > 100 µM (inactive) | 32.7 µM (inactive) | > 100 µM (inactive) | > 100 µM (inactive)
